We go through two compounds from US20230183243A1, “HETEROARYL DERIVATIVES AND PHARMACEUTICAL COMPOSITION COMPRISING SAME AS ACTIVE INGREDIENT” (VORONOI INC., priority 2019, published 2023).

The structures appear in SMILES notation.

The test system of one experiment is MDA-MB-231 cells. Put plainly: Inhibition of proliferation of triple-negative breast cancer cells, CellTiter-Glo. The experiment is classed as cell-based. As to conditions: Homo sapiens, 120 h; MDA-MB-231, cultured for 5 days. A digest of the protocol: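 MDA-MB-231 cells pre-cultured 24 h (5% CO2, 37 °C), then exposed to compound for 5 days at 12 three-fold dilutions, final 10 μM to 0.05 nM. Viability read by CellTiter-Glo luminescence after 10 min at 37 °C; growth inhibition calculated relative to untreated solvent-control cells.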

Another experiment has as its target T1, AAK1 (Homo sapiens, UniProt Q2M2I8).
T1 construct: purchased DiscoverX Corp. ScanMAX Kinase panel
In words: ScanMAX Kinase panel (DiscoverX). It is filed as binding. As to conditions: read-out: % Cont @ 1 μM. The procedure: (§1) Further, to evaluate the inhibitory activity of the compound according to the present invention against more enzymes, an experiment was performed as follows. Specifically, the enzyme (kinase) selectivity of the compound of Example 64 selected from the Example compounds of the present invention was measured by commissioning DiscoverX Corp., and an experiment was performed using a panel for ScanMAX™ Kinase analysis. In this case, the concentration of a drug treated with the enzyme was set at 1 μM in DMSO, and the percent control (% control) were defined in the same manner as in the following Expression 1.
(§2) (Example compound−Positive control)/(Negative control−Positive control)×100 [Expression 1]
(§3) Wherein the positive control represents a compound having a percent control of 0%, and the negative control represents a compound having a percent control of 100% in DMSO. For the enzyme selectivity of the present invention, the compound was also judged to have activity against the corresponding enzyme when the percent control for each of the enzymes was <35% (i.e., less than 35%).

The next experiment has as its target T2, CAMKK1 (Homo sapiens, UniProt Q8N5S9).
T2 construct: purchased DiscoverX Corp. (ScanMAX Kinase panel, commissioned)
Put plainly: ScanMAX Kinase panel (DiscoverX). It is filed as binding. The settings on record: read-out: % Cont @ 1 μM. As to the method:
as §1, §2, §3

The next experiment concerns the target T3, CAMKK2 (Homo sapiens, UniProt Q96RR4).
T3 construct: purchased DiscoverX Corp. ScanMAX Kinase panel
Put plainly: ScanMAX Kinase panel (DiscoverX). It is filed as binding. The settings on record: read-out: % Cont @ 1 μM. As to the method: as §1, §2, §3

The subject of a further experiment is FLT3(ITD). In words: ScanMAX Kinase panel (DiscoverX). It is filed as binding. The procedure:
as §1, §2, §3

The test system of a further experiment is FLT3(ITD, D835V). In words: ScanMAX Kinase panel (DiscoverX). The experiment is classed as binding. As to the method:
as §1, §2, §3

The target of a further experiment is T4, KIT(V559D, V654A) (Homo sapiens, UniProt P10721, V559D/V654A).
T4 construct: purchased DiscoverX Corp. ScanMAX Kinase panel
T4 sequence (P10721 26-976 V559D/V654A): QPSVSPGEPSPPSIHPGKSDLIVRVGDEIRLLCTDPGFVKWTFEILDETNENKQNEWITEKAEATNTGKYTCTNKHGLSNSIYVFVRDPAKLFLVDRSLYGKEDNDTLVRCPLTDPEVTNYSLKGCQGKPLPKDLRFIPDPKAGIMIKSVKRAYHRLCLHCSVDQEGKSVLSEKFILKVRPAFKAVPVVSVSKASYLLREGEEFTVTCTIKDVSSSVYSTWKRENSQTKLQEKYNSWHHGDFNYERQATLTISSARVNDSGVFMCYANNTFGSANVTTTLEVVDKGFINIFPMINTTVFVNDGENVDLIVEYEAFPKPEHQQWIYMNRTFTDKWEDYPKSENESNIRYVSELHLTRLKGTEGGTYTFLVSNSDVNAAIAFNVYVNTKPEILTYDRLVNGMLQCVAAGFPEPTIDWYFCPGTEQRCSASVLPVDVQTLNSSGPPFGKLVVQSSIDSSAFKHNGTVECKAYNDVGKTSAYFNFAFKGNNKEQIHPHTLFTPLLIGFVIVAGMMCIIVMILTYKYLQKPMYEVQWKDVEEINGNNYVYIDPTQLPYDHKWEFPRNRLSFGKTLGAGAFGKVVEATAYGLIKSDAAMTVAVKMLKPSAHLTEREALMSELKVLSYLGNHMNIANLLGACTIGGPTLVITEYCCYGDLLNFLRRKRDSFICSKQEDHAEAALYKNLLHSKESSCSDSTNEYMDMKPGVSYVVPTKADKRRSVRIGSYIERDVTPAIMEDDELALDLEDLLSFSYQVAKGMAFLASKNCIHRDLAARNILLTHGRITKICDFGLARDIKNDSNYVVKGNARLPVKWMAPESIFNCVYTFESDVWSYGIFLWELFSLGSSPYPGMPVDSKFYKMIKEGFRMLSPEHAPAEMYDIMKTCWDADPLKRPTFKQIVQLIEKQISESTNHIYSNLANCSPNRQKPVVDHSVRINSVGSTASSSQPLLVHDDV
Put plainly: ScanMAX Kinase panel (DiscoverX). It is filed as binding. As to conditions: read-out: % Cont @ 1 μM. The procedure: as §1, §2, §3

A further experiment concerns the target T5, MEK4 (Homo sapiens, UniProt P45985).
T5 construct: purchased DiscoverX Corp. ScanMAX Kinase panel
Put plainly: ScanMAX Kinase panel (DiscoverX). The experiment is classed as binding. As to conditions: read-out: % Cont @ 1 μM. As to the method:
as §1, §2, §3

The target in another experiment is T6, PKN2 (Homo sapiens, UniProt Q16513).
T6 construct: purchased DiscoverX Corp. ScanMAX Kinase panel
In words: ScanMAX Kinase panel (DiscoverX). It is filed as binding. As to conditions: read-out: % Cont @ 1 μM. The procedure: as §1, §2, §3

The next experiment has as its target T7, PRKCE (Homo sapiens, UniProt Q02156).
T7 construct: purchased DiscoverX Corp. (ScanMAX Kinase panel, commissioned)
In words: ScanMAX Kinase panel (DiscoverX). The experiment is classed as binding. As to conditions: read-out: % Cont @ 1 μM. The procedure: as §1, §2, §3

The next experiment deals with T8, SBK1 (Homo sapiens, UniProt Q52WX2).
T8 construct: purchased DiscoverX Corp. ScanMAX Kinase panel
T8 sequence (Q52WX2 whole entry): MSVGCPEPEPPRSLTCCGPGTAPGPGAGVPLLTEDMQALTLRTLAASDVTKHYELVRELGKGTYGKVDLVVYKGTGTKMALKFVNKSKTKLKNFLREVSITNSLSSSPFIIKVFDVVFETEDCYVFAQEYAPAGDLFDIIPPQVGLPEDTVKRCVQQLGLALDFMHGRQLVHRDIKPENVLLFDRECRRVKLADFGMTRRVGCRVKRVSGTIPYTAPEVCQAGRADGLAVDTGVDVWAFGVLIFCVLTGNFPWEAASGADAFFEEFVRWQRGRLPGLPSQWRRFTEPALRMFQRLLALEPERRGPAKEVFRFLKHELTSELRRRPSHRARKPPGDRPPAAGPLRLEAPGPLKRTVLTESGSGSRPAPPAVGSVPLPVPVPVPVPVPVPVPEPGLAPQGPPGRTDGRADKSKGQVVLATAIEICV
Put plainly: ScanMAX Kinase panel (DiscoverX). As to conditions: read-out: % Cont @ 1 μM. It is filed as binding. The procedure: as §1, §2, §3

A further experiment concerns the target T9, SNARK (Homo sapiens, UniProt Q9H093).
T9 construct: purchased DiscoverX Corp. (ScanMAX Kinase panel, commissioned)
In words: ScanMAX Kinase panel (DiscoverX). It is filed as binding. The procedure:
as §1, §2, §3

Another experiment addresses T10, TRKB (Homo sapiens, UniProt Q16620).
T10 construct: purchased DiscoverX Corp. ScanMAX Kinase panel
In words: ScanMAX Kinase panel (DiscoverX). The experiment is classed as binding. The settings on record: read-out: % Cont @ 1 μM. As to the method:
as §1, §2, §3

The target in experiment [1] is T11, TYK2(JH1domain-catalytic) (Homo sapiens, UniProt P29597).
T11 construct: TYK2(JH1domain-; purchased DiscoverX Corp. (ScanMAX Kinase panel, commissioned)
T11 sequence (P29597 897-1176 limits assumed): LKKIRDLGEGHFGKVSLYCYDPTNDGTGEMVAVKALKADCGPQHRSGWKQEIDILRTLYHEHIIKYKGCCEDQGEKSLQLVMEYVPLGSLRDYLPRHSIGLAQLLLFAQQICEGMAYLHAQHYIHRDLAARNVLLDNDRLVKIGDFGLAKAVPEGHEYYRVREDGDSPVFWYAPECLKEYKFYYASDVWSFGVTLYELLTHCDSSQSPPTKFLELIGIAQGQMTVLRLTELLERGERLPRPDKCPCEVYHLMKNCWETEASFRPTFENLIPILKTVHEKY
In words: ScanMAX Kinase panel (DiscoverX). It is filed as binding. As to the method:
as §1, §2, §3

Experiment [2] concerns the target T12, TYK2(JH2domain-pseudokinase) (Homo sapiens, UniProt P29597).
T12 construct: TYK2(JH2domain-; purchased DiscoverX Corp. ScanMAX Kinase panel
Put plainly: ScanMAX Kinase panel (DiscoverX). The experiment is classed as binding. The procedure:
as §1, §2, §3

For a further experiment, the target named is T13, FLT3(D835V) (Homo sapiens, UniProt P36888, D835V).
T13 construct: purchased DiscoverX Corp. (ScanMAX Kinase panel, commissioned)
Put plainly: ScanMAX Kinase panel (DiscoverX). As to conditions: read-out: % Cont @ 1 μM. It is filed as binding. As to the method: (§4) Specifically, the enzyme (kinase) selectivity of the compound of Example 7 selected from the Example compounds of the present invention was measured by commissioning DiscoverX Corp., and an experiment was performed using a panel for ScanMAX™ Kinase analysis.
(§5) In this case, the concentration of a drug treated with the enzyme was set at 1 μM in DMSO, and percent control (% control) was defined in the same manner as in the following Expression 1.
as §2
(§6) Wherein the positive control represents a compound having a percent control of 0%, and the negative control represents a compound having a percent control of 100% in DMSO. For the enzyme selectivity of the present invention, the compound was also judged to have activity against the corresponding enzyme when the percent control for each of the enzymes was <30% (i.e., less than 30%).

The target of another experiment is T14, MEK3 (Homo sapiens, UniProt P46734).
T14 construct: purchased DiscoverX Corp. (ScanMAX Kinase panel, commissioned)
Put plainly: ScanMAX Kinase panel (DiscoverX). The experiment is classed as binding. The settings on record: read-out: % Cont @ 1 μM. The procedure: as §4, §5, §2, §6

In another experiment the target is T15, JNK1 (Homo sapiens, UniProt P45983).
T15 construct: purchased DiscoverX Corp. (ScanMAX Kinase panel, commissioned)
T15 sequence (P45983 whole entry): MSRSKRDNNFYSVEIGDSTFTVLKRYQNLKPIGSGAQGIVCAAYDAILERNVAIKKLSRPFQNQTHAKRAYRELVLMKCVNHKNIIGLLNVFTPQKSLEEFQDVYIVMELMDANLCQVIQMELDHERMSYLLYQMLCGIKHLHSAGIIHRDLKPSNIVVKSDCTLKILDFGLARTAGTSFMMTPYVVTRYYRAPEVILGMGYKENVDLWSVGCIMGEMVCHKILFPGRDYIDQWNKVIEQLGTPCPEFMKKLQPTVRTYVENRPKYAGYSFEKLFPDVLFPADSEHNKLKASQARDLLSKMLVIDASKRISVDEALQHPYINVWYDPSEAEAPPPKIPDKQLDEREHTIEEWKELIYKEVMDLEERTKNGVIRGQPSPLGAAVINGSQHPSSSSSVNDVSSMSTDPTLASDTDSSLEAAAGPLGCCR
Put plainly: JNK enzyme activity, Kinase HotSpot service (Reaction Biology Corporation). The experiment is classed as biochemical. As to conditions: ATP concentration of 10 μM. As to the method: (§7) IC50 values of the compound of Example 7 for the enzymes were measured using the Kinase HotSpot service (Reaction Biology Corporation), and a test was performed under the same conditions at an ATP concentration of 10 μM. The concentration of the compound was measured at a 3-fold concentration gradient from the peak concentration of 10 mM.
(§8) All the experimental methods were performed as provided in the Kinase HotSpot Customer Protocol (http://www.reactionbiology.com//Kinase_Assay_Protocol).

For a further experiment, the target named is T16, JNK2 (Homo sapiens, UniProt P45984).
T16 construct: purchased DiscoverX Corp. (ScanMAX Kinase panel, commissioned)
T16 sequence (P45984 whole entry): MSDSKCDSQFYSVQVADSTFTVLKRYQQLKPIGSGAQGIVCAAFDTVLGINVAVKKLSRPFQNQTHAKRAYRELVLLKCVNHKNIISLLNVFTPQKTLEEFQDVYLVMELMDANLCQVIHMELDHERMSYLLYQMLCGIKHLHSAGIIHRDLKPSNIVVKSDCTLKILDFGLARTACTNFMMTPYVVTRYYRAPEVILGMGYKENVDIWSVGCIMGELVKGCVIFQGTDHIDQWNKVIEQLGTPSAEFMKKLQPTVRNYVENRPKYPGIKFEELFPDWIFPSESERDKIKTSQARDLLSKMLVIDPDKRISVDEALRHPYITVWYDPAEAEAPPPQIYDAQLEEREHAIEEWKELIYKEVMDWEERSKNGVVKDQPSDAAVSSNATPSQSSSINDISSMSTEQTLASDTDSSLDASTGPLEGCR
Described as above. It is filed as biochemical. As to conditions: ATP concentration of 10 μM. As to the method: as §7, §8

The next experiment concerns the target T17, JNK3 (Homo sapiens, UniProt P53779).
T17 construct: purchased DiscoverX Corp. (ScanMAX Kinase panel, commissioned)
Described as above. The experiment is classed as biochemical. The settings on record: ATP concentration of 10 μM. As to the method: as §7, §8

T2 sequence (Q8N5S9 whole entry): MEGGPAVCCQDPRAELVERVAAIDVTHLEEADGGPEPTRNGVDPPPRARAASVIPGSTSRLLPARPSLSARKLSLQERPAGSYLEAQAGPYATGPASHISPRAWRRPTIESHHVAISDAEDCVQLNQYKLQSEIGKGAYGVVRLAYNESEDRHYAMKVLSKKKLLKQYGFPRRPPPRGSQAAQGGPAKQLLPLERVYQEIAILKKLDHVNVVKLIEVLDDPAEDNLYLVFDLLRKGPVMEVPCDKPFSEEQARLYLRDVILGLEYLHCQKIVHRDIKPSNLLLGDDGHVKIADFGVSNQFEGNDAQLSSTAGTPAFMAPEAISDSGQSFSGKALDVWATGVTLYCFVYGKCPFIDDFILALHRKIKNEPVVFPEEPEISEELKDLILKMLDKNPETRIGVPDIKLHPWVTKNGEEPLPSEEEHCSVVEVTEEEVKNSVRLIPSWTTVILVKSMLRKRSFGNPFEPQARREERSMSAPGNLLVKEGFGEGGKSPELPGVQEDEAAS
T17 sequence (P53779 whole entry): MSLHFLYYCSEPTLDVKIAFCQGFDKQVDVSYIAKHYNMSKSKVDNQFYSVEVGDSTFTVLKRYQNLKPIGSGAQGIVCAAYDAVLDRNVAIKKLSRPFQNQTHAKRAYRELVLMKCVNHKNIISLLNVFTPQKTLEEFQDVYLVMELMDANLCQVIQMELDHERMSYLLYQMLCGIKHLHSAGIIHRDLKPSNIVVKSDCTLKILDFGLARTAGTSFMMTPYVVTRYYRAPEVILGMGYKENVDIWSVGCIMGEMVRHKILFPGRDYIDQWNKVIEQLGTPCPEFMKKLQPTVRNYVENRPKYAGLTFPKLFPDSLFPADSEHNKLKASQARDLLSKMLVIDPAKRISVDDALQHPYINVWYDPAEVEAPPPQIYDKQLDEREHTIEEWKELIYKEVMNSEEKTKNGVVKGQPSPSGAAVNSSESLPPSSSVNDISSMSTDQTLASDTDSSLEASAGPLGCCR
T12 sequence (P29597 589-875 limits assumed): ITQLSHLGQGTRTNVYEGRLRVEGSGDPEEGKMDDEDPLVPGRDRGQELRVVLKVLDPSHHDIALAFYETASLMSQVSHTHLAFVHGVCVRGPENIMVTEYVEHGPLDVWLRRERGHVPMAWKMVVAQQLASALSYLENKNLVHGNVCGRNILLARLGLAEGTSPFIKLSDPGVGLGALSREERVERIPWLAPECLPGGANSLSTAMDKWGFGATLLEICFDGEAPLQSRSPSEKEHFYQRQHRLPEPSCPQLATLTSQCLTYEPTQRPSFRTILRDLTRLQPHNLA
T3 sequence (Q96RR4 whole entry): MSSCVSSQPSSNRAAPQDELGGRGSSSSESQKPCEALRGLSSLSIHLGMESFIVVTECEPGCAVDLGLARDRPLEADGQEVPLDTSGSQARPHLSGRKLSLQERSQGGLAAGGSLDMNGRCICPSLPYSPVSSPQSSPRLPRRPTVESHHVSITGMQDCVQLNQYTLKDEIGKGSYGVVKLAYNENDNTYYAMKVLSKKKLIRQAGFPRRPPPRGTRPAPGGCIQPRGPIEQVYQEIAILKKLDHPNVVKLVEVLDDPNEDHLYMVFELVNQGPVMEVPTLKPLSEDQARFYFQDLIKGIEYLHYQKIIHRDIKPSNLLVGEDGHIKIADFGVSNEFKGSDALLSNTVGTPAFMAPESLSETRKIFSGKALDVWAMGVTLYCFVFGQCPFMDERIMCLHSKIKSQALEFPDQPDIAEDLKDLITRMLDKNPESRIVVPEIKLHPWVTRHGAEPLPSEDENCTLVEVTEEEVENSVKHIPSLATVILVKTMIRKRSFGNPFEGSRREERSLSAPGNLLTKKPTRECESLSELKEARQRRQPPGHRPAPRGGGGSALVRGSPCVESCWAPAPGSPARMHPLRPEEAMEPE
T9 sequence (Q9H093 whole entry): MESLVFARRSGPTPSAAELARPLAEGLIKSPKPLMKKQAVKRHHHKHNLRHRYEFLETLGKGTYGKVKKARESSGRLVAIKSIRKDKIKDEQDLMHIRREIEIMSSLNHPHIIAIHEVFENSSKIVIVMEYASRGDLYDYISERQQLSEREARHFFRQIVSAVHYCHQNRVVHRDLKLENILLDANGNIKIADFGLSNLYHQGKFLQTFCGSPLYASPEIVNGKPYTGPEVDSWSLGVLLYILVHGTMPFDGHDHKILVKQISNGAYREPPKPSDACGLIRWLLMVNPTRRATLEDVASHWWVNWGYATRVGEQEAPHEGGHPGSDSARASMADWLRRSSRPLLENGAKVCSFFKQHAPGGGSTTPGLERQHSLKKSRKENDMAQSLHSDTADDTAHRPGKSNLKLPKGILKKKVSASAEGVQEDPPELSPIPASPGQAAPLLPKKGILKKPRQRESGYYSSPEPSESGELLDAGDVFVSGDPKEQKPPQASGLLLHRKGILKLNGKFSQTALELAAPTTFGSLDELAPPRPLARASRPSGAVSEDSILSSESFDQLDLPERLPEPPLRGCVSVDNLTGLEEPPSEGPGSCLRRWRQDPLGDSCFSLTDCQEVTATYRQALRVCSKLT

`COc1cc(N2CCCC2=O)ccc1Nc1cc(NC2CCCCC2)c2c(C#N)c[nH]c2n1` [Example 64, 4-(cyclohexylamino)-6-((2-methoxy-4-(2-oxopyrrolidin-1-yl)phenyl)amino)-1H-pyrrolo[2,3-b] pyridine-3-carbonitrile]: the GI50 with MDA-MB-231 cells was less than 100 nM. Besides, the remaining binding at 1 µM on AAK1 amounted to 4.4%; at CAMKK1, 1.6%; on CAMKK2, 2.2%; at KIT(V559D, V654A) it was 14%; on MEK4, 27%; on PKN2, 28%. Also, the remaining binding at 1 µM was 5.7% on SBK1 and 3.9% at TRKB. Moreover, the “% Cont @ 1 μM” value was found to be 17% with FLT3(ITD); 1.2% with FLT3(ITD, D835V); 0% on SNARK; 1.7% in experiment [1]; 7.2% in experiment [2]. Further, the percent of control binding at 1 µM at PRKCE turned out to be 1.4%.
In the experiment with MDA-MB-231 cells, `COc1cc(-c2ccnn2C)ccc1Nc1nc(NC2CCCCC2)c2c(C#N)c[nH]c2n1` [Example 7, 4-(cyclohexylamino)-2-((2-methoxy-4-(1-methyl-1H-pyrazol-5-yl)phenyl)amino)-7H-pyrrolo[2,3-d] pyrimidine-5-carbonitrile] returned a GI50 of less than 100 nM. For the same compound, the remaining binding at 1 µM at FLT3(D835V) stood at 5.6%; at MEK3, 18%. Besides, the IC50 against JNK1, on JNK2 and on JNK3 was less than 100 nM in each case.
